“And” between values parts separate entries of the source, which are not always exact repeats. Equal values may be shown once. Read-outs that look alike come from different tables or passages of the source. Numbered stars: 1 amine (or outer) side, 2 acyl side, 3 side chain; on linkers, the order of the positions; unused ones are H or OH. Bridge positions count the residues as written; N and C are the ends. Ends that are not written are not given here. Peptide text beside a SMILES is read from it. I, II: the chains in the order shown. X1 = O=C1CC([*:1])C(=O)N1CCN(CCN1C(=O)CC([*:2])C1=O)CCN1C(=O)CC([*:3])C1=O; X3 = O=C1CC([*:1])C(=O)N1CCOCCOCCOCCN1C(=O)CC([*:2])C1=O; X2 = O=C1CC([*:1])C(=O)N1CCOCCOCCN1C(=O)CC([*:2])C1=O
T1: Shank1 PDZ (Rattus norvegicus, UniProt Q9WV48)
T1 construct: His tag; made in house; host or cells: E. coli BL21
T1 sequence (Q9WV48 653-765): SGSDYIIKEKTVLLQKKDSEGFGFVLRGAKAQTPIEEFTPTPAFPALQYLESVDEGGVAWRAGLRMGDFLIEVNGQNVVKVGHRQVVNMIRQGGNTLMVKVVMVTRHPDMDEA

T2: Shank3 PDZ (Mus musculus, UniProt Q4ACU6)
T2 construct: His tag; made in house; host or cells: E. coli BL21
T2 sequence (Q4ACU6 533-665): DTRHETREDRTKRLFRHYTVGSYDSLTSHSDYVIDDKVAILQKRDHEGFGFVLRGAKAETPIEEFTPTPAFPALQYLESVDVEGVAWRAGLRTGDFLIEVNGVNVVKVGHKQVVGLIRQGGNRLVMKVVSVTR

T3: p1 (monomeric βPIX peptide) (Rattus norvegicus)
T3 chain: CGSSGDPAWDETNL

T4: p2 (dimeric peptide, BM(PEG)2) (also: dimer via Cys-BM(PEG)2 linker)
T4 chain: Ac-CGSSGDPAWDETNL

T5: p3 (trimeric peptide, TMEA) (also: trimer via Cys-TMEA linker)
T5 chain: Ac-CGSSGDPAWDETNL

T6: dimeric peptide BM(PEG)3 (also: dimer via Cys-BM(PEG)3 linker)
T6 chain: Ac-CGSSGDPAWDETNL

B1: Shank3 PDZ 533-665 (protein)
chain: T2 sequence (Q4ACU6 533-665)
B2: Shank1 PDZ 653-765 (protein)
chain: T1 sequence (Q9WV48 653-765)

Legend:
Shank1 PDZ [1] = biological target: T1, Shank1 PDZ; assay: Isothermal titration calorimetry, Shank1 PDZ; format: binding
Text: (§1) Gene encoding the Shank1 PDZ (Swiss-Prot accession number Q9WV48.1, residues 653–765) was synthesized by GenScript Inc., and digested by Nde I and Xho I restriction enzymes and ligated into pET28a vector to generate pET28-Shank1 PDZ plasmid (S1A Fig). The plasmid pET.M.3C Shank3 PDZ (Swiss-Prot accession number Q4ACU6.3, residues 533–665) was a gift from Prof. Mingjie Zhang’s group from Division of Life Science, Hong Kong University of Science and Technology. The recombinant plasmid pET28-Shank1 PDZ and pET.M.3C Shank3 PDZ were transformed into E. coli BL21 cells for protein production. Mono-clones were pre-cultured overnight at 37°C, and then cultures were added to new media, shaken at 37 °C until optical density at 600 nm reached 0.6–0.8. Then isopropyl β-D-1-thiogalactopyranoside was added at final concentration 1 mM to induce protein overexpression, the culture was shaken overnight at 16°C.
(§2) Prior to use, lyophilized peptides were dissolved in the storage buffer (50 mM sodium phosphate, 200 mM NaCl, pH 7.4). All the peptides and protein solution were filtered through 0.1 μm membrane, and their concentrations were adjusted according to experiments requirement: except for the binding pair p1 ligand and Shank1 PDZ, the proteins concentration were between 30–40 μM, ligands concentration were between 300–400 μM; and for the binding pair p1 ligand and Shank1 PDZ, the affinity was very low so that protein concentration was adjusted to about 315 μM and p1 ligand concentration was adjusted to about 3.14 mM to get accuracy affinity data. All the solutions were extensively degassed just before titration. Titrations were performed at 25°C by MicroCal VP-ITC (Malvern), and data were analyzed by Origin software (Origin Lab) and fitted to single-binding-site model.

Shank3 PDZ = biological target: T2, Shank3 PDZ; assay: Isothermal titration calorimetry, Shank3 PDZ; format: binding
Text: as §1, §2

Shank1 PDZ [2] = biological target: T1, Shank1 PDZ; assay: Native mass spectrometry, Shank1 PDZ; format: binding; conditions: for complexes with higher stoichiometry such as 2:1 or 3:1: native MS, protein/peptide ratio 4:1, protein in excess, within the detection limit of native MS
Method: Prior to the experiment, the protein solution was extensively dialyzed at 4°C against 150mM ammonium acetate. During the dialysis, Shank1 PDZ yielded no precipitate, while Shank3 PDZ was largely precipitated out. Increasing the concentration of ammonium acetate to 200–500 mM couldn’t alleviate precipitation. Lyophilized peptides were also dissolved in the 150 mM ammonium acetate. All the peptides and protein solution were filtered through 0.1 μm membrane, and their concentrations were adjusted according to experiments requirement. The protein and peptide were mixed as the corresponding ratio and incubated at room temperature for 20 minutes.
Positive ion electrospray ionization mass spectra were acquired on a Micromass Q-Tof micro mass spectrometer (Waters), with a nanoESI source using EconoTips. The capillary voltage was adjusted in the range of 1.2–2.2 kV until optimal ion signals were obtained. The cone voltage of the Q-TOF was set at 20 V, and the ion source temperature was set at 40°C.

Shank1 PDZ [3] = biological target: T1, Shank1 PDZ; assay: Surface plasmon resonance, immobilized Shank1 PDZ; format: binding; conditions: for kon: pH 7.4, read-out: association rate constant kon; for koff: pH 7.4, read-out: dissociation rate constant koff
Method: Prior to use, lyophilized peptides were dissolved in the storage buffer (50 mM sodium phosphate, 200 mM NaCl, pH 7.4) at high concentration and diluted to required concentration using running buffer (HBS-EP: 0.01 M HEPES pH 7.4, 0.15 M NaCl, 3 mM EDTA, 0.005% v/v Surfactant P20). All the peptides and protein solution were filtered through 0.1 μm membrane, and their concentrations were adjusted according to experiments requirement: for ligand p1, concentration series of 10.8 μM, 21.6 μM, 43.2 μM, 86.5μM, 173μM, 346μM were used; for ligand p2, concentrations series of 10 μM, 20 μM, 40 μM, 80 μM, 160 μM, 320 μM were used; for ligand p3, concentrations series of 2.63 μM, 5.27 μM, 10.5 μM, 21.1 μM, 42.1 μM, 84.3 μM were used. All sample solution and running buffer were extensively degassed just before titration. Shank1 PDZ protein was coupled on CM5 chip using EDC/NHS method.
Running were performed at 25°C on Biacore 3000 (GE), and data were processed by BIAevaluation software and fitted to steady state affinity model and 1:1 Langmuir binding model. 1:1 Langmuir binding model which show kinetics data was analyzed by BIAevaluation software. Steady state affinity model which show affinity data was analyzed by Origin software using the following equation: Req=KACRmax/1+KACn

[4] = biological target: T3, p1 (monomeric βPIX peptide); assay: ITC
[5] = biological target: T4, p2 (dimeric peptide, BM(PEG)2); assay: ITC
[6] = biological target: T5, p3 (trimeric peptide, TMEA); assay: ITC
dimeric peptide BM(PEG)3 = biological target: T6, dimeric peptide BM(PEG)3; assay: ITC
[7] = biological target: T3, p1 (monomeric βPIX peptide); assay: native MS
[8] = biological target: T4, p2 (dimeric peptide, BM(PEG)2); assay: native MS
[9] = biological target: T5, p3 (trimeric peptide, TMEA); assay: native MS
[10] = biological target: T4, p2 (dimeric peptide, BM(PEG)2); assay: SPR kinetics
[11] = biological target: T5, p3 (trimeric peptide, TMEA); assay: SPR kinetics
[12] = biological target: T3, p1 (monomeric βPIX peptide); assay: SPR steady state
[13] = biological target: T4, p2 (dimeric peptide, BM(PEG)2); assay: SPR steady state
[14] = biological target: T5, p3 (trimeric peptide, TMEA); assay: SPR steady state
[15] = biological target: T4, p2 (dimeric peptide, BM(PEG)2); assay: ITC (diluted ligand)
[16] = biological target: T5, p3 (trimeric peptide, TMEA); assay: ITC (diluted ligand)

Molecule	Kd (Shank1 PDZ [1])	Kd (Shank3 PDZ)	Kd (Shank1 PDZ [2])	complexes with higher stoichiometry such as 2:1 or 3:1 (Shank1 PDZ [2])	kon (Shank1 PDZ [3])	koff (Shank1 PDZ [3])	Kd [4]	Kd [5]	Kd [6]	further results
CC(=O)N[C@@H](CSC1CC(=O)N(CCOCCOCCOCCN2C(=O)CC(SC[C@H](NC(C)=O)C(=O)NCC(=O)N[C@@H](CO)C(=O)N[C@@H](CO)C(=O)NCC(=O)N[C@@H](CC(=O)O)C(=O)N3CCC[C@H]3C(=O)N[C@@H](C)C(=O)N[C@@H](Cc3c[nH]c4ccccc34)C(=O)N[C@@H](CC(=O)O)C(=O)N[C@@H](CCC(=O)O)C(=O)N[C@H](C(=O)N[C@@H](CC(N)=O)C(=O)N[C@@H](CC(C)C)C(=O)O)[C@@H](C)O)C2=O)C1=O)C(=O)NCC(=O)N[C@@H](CO)C(=O)N[C@@H](CO)C(=O)NCC(=O)N[C@@H](CC(=O)O)C(=O)N1CCC[C@H]1C(=O)N[C@@H](C)C(=O)N[C@@H](Cc1c[nH]c2ccccc12)C(=O)N[C@@H](CC(=O)O)C(=O)N[C@@H](CCC(=O)O)C(=O)N[C@H](C(=O)N[C@@H](CC(N)=O)C(=O)N[C@@H](CC(C)C)C(=O)O)[C@@H](C)O (some centres unmarked) [dimeric peptide BM(PEG)3] (I: Ac-CGSSGDPAWDETNL-OH / II: Ac-CGSSGDPAWDETNL-OH; linker I:1-II:1 via X3)	13.7 ± 0.7 µM	–	–	–	–	–	–	–	–	–
CC(=O)N[C@@H](CSC1CC(=O)N(CCOCCOCCN2C(=O)CC(SC[C@H](NC(C)=O)C(=O)NCC(=O)N[C@@H](CO)C(=O)N[C@@H](CO)C(=O)NCC(=O)N[C@@H](CC(=O)O)C(=O)N3CCC[C@H]3C(=O)N[C@@H](C)C(=O)N[C@@H](Cc3c[nH]c4ccccc34)C(=O)N[C@@H](CC(=O)O)C(=O)N[C@@H](CCC(=O)O)C(=O)N[C@H](C(=O)N[C@@H](CC(N)=O)C(=O)N[C@@H](CC(C)C)C(=O)O)[C@@H](C)O)C2=O)C1=O)C(=O)NCC(=O)N[C@@H](CO)C(=O)N[C@@H](CO)C(=O)NCC(=O)N[C@@H](CC(=O)O)C(=O)N1CCC[C@H]1C(=O)N[C@@H](C)C(=O)N[C@@H](Cc1c[nH]c2ccccc12)C(=O)N[C@@H](CC(=O)O)C(=O)N[C@@H](CCC(=O)O)C(=O)N[C@H](C(=O)N[C@@H](CC(N)=O)C(=O)N[C@@H](CC(C)C)C(=O)O)[C@@H](C)O (some centres unmarked) [p2] (I: Ac-CGSSGDPAWDETNL-OH / II: Ac-CGSSGDPAWDETNL-OH; linker I:1-II:1 via X2)	16.6 µM and 18 µM	5.9 ± 0.4 µM	~5.3 µM	not observed	65200 M⁻¹ s⁻¹	1.12 s⁻¹	–	–	–	–
GSGSGDPAWDETNL-OH [p1]	–	–	–	–	–	–	–	–	–	Kd (Shank1 PDZ [1]; MicroCal VP-ITC, 25°C, 50 mM sodium phosphate, 200 mM NaCl, pH 7.4, single-binding-site model, [p1] = 4 mM/[Shank1 PDZ] = 400 μM, [p2] = 326 μM/43 μM, [p3] = 354 μM/35 μM (Fig 3A), read-out: dissociation constant Kd (ITC)): 41 ± 1 µM; Kd (Shank3 PDZ; MicroCal VP-ITC, 25°C, 50 mM sodium phosphate, 200 mM NaCl, pH 7.4, single-binding-site model, [p1] = 406 μM/[Shank3 PDZ] = 40 μM, [p2] = 400 μM/30 μM, [p3] = 315 μM/34 μM, read-out: Kd (ITC)): 24 ± 2 µM; Kd (Shank1 PDZ [2]; rough estimation from peak intensities, 1:1 mixture, 150 mM ammonium acetate, 65 μM each, gas-phase measurement, read-out: dissociation constant estimated from native MS peak intensity): ~13 µM; Kd (Shank1 PDZ [3]; Biacore 3000, 25°C, HBS-EP pH 7.4, Shank1 PDZ coupled on CM5 chip, steady state affinity model, n = 1, read-out: dissociation constant (SPR, steady state affinity model)): 45 ± 6 µM
I: Ac-CGSSGDPAWDETNL-OH / II: Ac-CGSSGDPAWDETNL-OH / III: Ac-CGSSGDPAWDETNL-OH (linker I:1-II:1-III:1 via X1) [p3]	8.1 µM and 6.5 µM	1.9 ± 0.1 µM	~4.5 µM	not observed	78900 M⁻¹ s⁻¹	0.353 s⁻¹	–	–	–	difference in kon (Shank1 PDZ [3]; SPR, 1:1 Langmuir binding model, ligand p3 compared with ligand p2): about 1.2 fold
B1	–	–	–	–	–	–	24 µM	5.9 µM	1.9 µM	–
B2	–	–	–	–	–	–	41 µM	16.6 µM	8.1 µM	Kd (dimeric peptide BM(PEG)3): 13.7 µM; Kd [7]: ~13 µM; Kd [8]: ~5.3 µM; Kd [9]: ~4.5 µM; Kd [10]: 17.1 µM; Kd [11]: 4.48 µM; Kd [12]: 45 µM; Kd [13]: 19 µM; Kd [14]: 6 µM; Kd [15]: 18 µM; Kd [16]: 6.5 µM

Source: article PMC4769301, “Affinity Enhancement by Ligand Clustering Effect Inspired by Peptide Dendrimers−Shank PDZ Proteins Interactions” (PLoS ONE, 2016)
